# US20250195498A1, “INHIBITOR OF CELLULAR PURINE NUCLEOTIDE SALVAGE PATHWAY ENZYME FOR USE IN THE TREATMENT AND/OR PREVENTION OF HELICOBACTER PYLORI INFECTION AND/OR DISEASE ASSOCIATED WITH SUCH INFECTION AND PHARMACEUTICAL COMPOSITION COMPRISING THE SAME” (UNIWERSYTET WARSZAWSKI, priority 2022, published 2025)
# Where “and” joins values, the source holds several entries; their conditions need not be identical. Equal entries are not always repeated. Where two headings read alike, the source gives them in different places.
# Key:
# [1] = system: H. pylori strain N6; assay: Growth curve method / MIC, strain N6; format: cell-based, Helicobacter pylori; conditions: Helicobacter pylori
# Method: (§1) The representative PNP inhibitor from H. pylori included in this study was immucillin A. The experiment was conducted using the growth curve method (two-fold serial dilutions in liquid medium). The tested H. pylori strains were cultured in Petri dishes with BHI solid medium supplemented with 10% FBS and 1% H. pylori Selective Supplement antibiotic kit, in anaerostats under microaerophilic conditions (5% 02, 10% CO2, 85% N2) at 37° C. for 3 days. Liquid culture of H. pylori was conducted overnight with shaking at 37° C. under microaerophilic conditions in BHI medium supplemented with 10% FBS and 1% H. pylori Selective Supplement antibiotic kit. Subsequently, for the essential experiment of determining the minimum inhibitory concentration (MIC), double strengthened liquid BHI medium was prepared, that is, supplemented with 20% FBS and a 2% set of H. pylori Selective Supplement antibiotics.
# (§2) Bacterial proliferation inhibition experiments were carried out in 24-deep-well 2 ml flat-bottomed plates at a solution volume per well of 0.5 ml. In a single well, double strengthened (relative to the concentration planned for testing) solutions of the test inhibitor and double strengthened liquid BHI medium inoculated with H. pylori (10^4-10^5 CFU/ml in the final volume in the well, corresponding to the optical density of the culture OD600=0.05) were mixed together in a 1:1 ratio.
# (§3) Kanamycin at a concentration of 25 μg/ml (Irie et al., 1997) was used as a positive control, while Mili-Q deionized water and BHI medium not inoculated with bacteria were used as negative controls. Plates were shaken at 37° C., under microaerophilic conditions. […] After 24 hours, the OD600 of samples containing the negative control, i.e. with Mili-Q deionized water, was about 1.2-1.4, corresponding to a bacterial concentration of about […].
# (§4) In addition, the method proposed by Knezevic et al. (2018) was used to check whether the observed OD600 was from live bacterial cells. For this purpose, an equal volume of Christensen's double strength urea broth (that is, containing twice the concentration of all components) was added to the wells after incubation, and the plates were additionally incubated for 4 hours in an oxygen atmosphere at 37° C. During incubation, in wells with urease produced by live bacteria, urea is converted to ammonia and carbon dioxide, changing the pH of the solution and thus the colour of the phenol red indicator contained in the medium (from orange to purple).
# (§5) All experiments were performed in triplicate.
# Inhibition by PLP and its metabolic precursors of the growth of H. pylori strains: 26695, N6 and P12 in culture was investigated using the growth curve method as described in Example 3. From these experiments, the minimum inhibitory concentration was determined as the lowest concentration of a compound that inhibits the visible growth of the bacteria, compared to growth in control samples without the tested compounds. All experiments were carried out in triplicate.
# [2] = system: H. pylori strain M91 (MTZ + CLR resistant); assay: Growth curve method / MIC, resistant strain M91; format: cell-based, Helicobacter pylori; conditions: Helicobacter pylori, strain M91, MTZ + CLR resistant
# Method: as §1, §2, §3, §4, §5
# The antibacterial activity of two compounds, mefloquine (in the form of hydrochloride) and quinine, described in the literature as potent in vitro inhibitors of the PNP enzyme from Plasmodium falciparum (Dziekan et al., 2019), was tested. Using a two-fold serial dilution method in liquid medium (as described in Example 3), the MIC values for mefloquine and quinine were determined against clinical H. pylori strains resistant to MTZ, CLR and MTZ+CLR (M26, M91, M92 and M93), as well as the reference H. pylori strain 26695. Four clinical H. pylori strains isolated from adults, from primary infections (the subjects had never previously been treated against H. pylori infection) were tested. These strains come from the collection of the Department of Microbiology of the Medical University of Wroclaw and were obtained due to collaboration with Prof. Grażyna Gościniak, MD, PhD. The tested compounds belong to organic substances and are soluble in DMSO. The maximum tested concentration of quinine in H. pylori culture was 0.56 mM, and that of mefloquine was 2.25 mM. […] On each occasion, the effect of DMSO alone on the growth of the H. pylori strains tested was also checked. […] Kanamycin was used as a positive control and Mili-Q deionised water as a negative control. All experiments were carried out in triplicate. […]
# [3] = strain N6, wild-type, read-out: MIC (Table 7)
SMILES,"MIC [1, 3]","MIC ([1]; strain N6, read-out: MIC)",MIC ([2]; read-out: MIC),MIC ([2]; read-out: MIC (Table 7))
"Cc1ncc(CO)c(C=O)c1O.Cl [PI-h, pyridoxal hydrochloride]",2.5 µM,509 µg/mL and 2500 µM,255 µg/mL,1.25 µM
"Cc1ncc(COP(=O)(O)O)c(C=O)c1O [PLP, pyridoxal 5′-phosphate]",2.5 µM,618 µg/mL and 2500 µM,309 to 618 µg/mL,1.25 to 2.5 µM
